The results in this text go back to paper PMC7162861, “Synthesis, cytotoxicity, pharmacokinetic profile, binding with DNA and BSA of new imidazo[1,2-a]pyrazine-benzo[d]imidazol-5-yl hybrids” (Scientific Reports, 2020).

One assay deals with EtBr-CT-DNA complex. Nature of the assay: Competitive binding with ethidium bromide for CT-DNA. The arrangement: species or system calf. Here is the method: Ethidium bromide (EtBr) displacement experiments were performed by incremental addition of compound 31 to complex of EtBr-DNA. The EtBr (3 µM) and CT-DNA (30 µM) were titrated with incremental addition of compound 31 (0–85 µM) in phosphate buffer (pH 7.4). […] The quenching constant (Kq) was calculated using the Stern-Volmer equation (Eq. 2). The apparent binding constant (Kapp) was obtained from known binding constant for ethidium bromide (KEtBr = 1 × 10^7 M^−1) using the following equation (Eq. 4).4 Kapp=KEtBr[EtBr]/[compound]50% where [compound]50% and [EtBr] are the concentrations of the compound at 50% quenching of DNA-bound ethidium bromide emission intensity and ethidium bromide (3 µM), respectively.

The nature of assay [1]: NCI cytotoxicity screen, Non-Small Cell Lung Cancer panel. It is filed as cell-based. The note with it: Homo sapiens; EXVX; five dose 0.01–100 µM; read-out: LC50 (the source's name). Here is the method:
Cytotoxicity was performed at National Cancer Institute (NCI), Bethesda, USA as per their protocols.

For a further assay, the system named is CT-DNA. In words: CT-DNA binding, fluorescence quenching (Stern-Volmer, Scatchard). More on the design: species or system calf. Here is the method: The stock solution of compound 31 (10^−3 M) was prepared in DMSO and diluted to required concentration using appropriate buffer solution. Calf thymus (CT)-DNA was dissolved in 10 mM Tris buffer of pH 7.4 having 1 mM EDTA at room temperature. The purity of DNA solution was determined by using the ratio of absorbance at 260 nm and 280 nm wavelength. Extinction coefficient 6600 M^−1 cm^−1 of single nucleotide at 260 nm was used to determine the concentration of the DNA solution. The stock solution of BSA (10^−3 M) was prepared in distilled water and stored at 4 °C temperature.
In the case of BSA experiments, fluorescence emission spectra were performed for BSA (10 µM) with increasing concentration of compound 31 (0–10 µM) in phosphate buffer (pH 7.4) at room temperature upon excitation at 280 nm. The dissociation constant of compound 31 was estimated by titrating the complex of compound 31 (10 µM) and BSA (10 µM) with increasing concentration of ibuprofen (0–15 µM), upon excitation at 280 nm. All emission spectra were recorded in the range of 200 to 800 nm.
Binding parameters KSV and Kq were calculated using the Stern-Volmer equation (Eq. 2):2 F0/F=1+Ksv[Analyte]=1+Kqτo[Analyte]
Fo denotes the emission intensity of derivative 31/BSA free from analyte (CT-DNA/ derivative 31), whereas, F denotes the emission intensity of derivative 31/BSA bound with analyte (CT-DNA/derivative 31). The values of KSV and Kq were determined from the plot of Fo/F vs. [analyte].
The binding parameters Kbin and n were determined using Scatchard equation (Eq. 3):3 logF0−F/F=logKbin+nlog[analyte]
Fo and F denote similar factors as those of the above Stern-Volmer equation. The values of Kbin and n were determined from the plot of log (Fo − F)/F vs. log [analyte].

Assay [2] has as its target bovine serum albumin (BSA) (Bos taurus, UniProt P02769). Nature of the assay: Förster resonance energy transfer (FRET) with BSA. It is filed as binding. The settings on record: BSA donor, compound acceptor. The source says:
The energy transfer efficiency from BSA and compound 31 can be calculated using Eq. 5 [27]:5 E=1−F/Fo=Ro6/Ro6+r^6
F and Fo are the BSA fluorescence intensities in the presence and absence of the derivative 31, r is the distance among the acceptor and the donor, whereas Ro is the critical distance when the efficiency of energy transfer is 50%. Ro can be calculated using Eq. 6 [28]:6 Ro6=8.8×10^−25k^2η^−4ΦJ where k^2 is the orientation factor of the dipole, ɳ is the refracted index of the medium, Ф the fluorescence quantum yield of the donor, and J is the overlap integral of the fluorescence emission spectrum of the donor with the absorption spectrum of the acceptor. The value of J can be calculated using Eq. 7 [29]:7 J=ΣF(λ)ε(λ)λ^4Δλ/ΣF(λ)Δλ where F(λ) is fluorescence intensity of the donor i.e. BSA without acceptor and ε(λ) is molar absorption coefficient of the acceptor i.e. compound 31 at the wavelength λ, respectively. The values of k^2 = 2/3, ɳ = 1.336 and Ф = 0.15 were used for the calculations.

bovine serum albumin (BSA), sequence (P02769 25-607): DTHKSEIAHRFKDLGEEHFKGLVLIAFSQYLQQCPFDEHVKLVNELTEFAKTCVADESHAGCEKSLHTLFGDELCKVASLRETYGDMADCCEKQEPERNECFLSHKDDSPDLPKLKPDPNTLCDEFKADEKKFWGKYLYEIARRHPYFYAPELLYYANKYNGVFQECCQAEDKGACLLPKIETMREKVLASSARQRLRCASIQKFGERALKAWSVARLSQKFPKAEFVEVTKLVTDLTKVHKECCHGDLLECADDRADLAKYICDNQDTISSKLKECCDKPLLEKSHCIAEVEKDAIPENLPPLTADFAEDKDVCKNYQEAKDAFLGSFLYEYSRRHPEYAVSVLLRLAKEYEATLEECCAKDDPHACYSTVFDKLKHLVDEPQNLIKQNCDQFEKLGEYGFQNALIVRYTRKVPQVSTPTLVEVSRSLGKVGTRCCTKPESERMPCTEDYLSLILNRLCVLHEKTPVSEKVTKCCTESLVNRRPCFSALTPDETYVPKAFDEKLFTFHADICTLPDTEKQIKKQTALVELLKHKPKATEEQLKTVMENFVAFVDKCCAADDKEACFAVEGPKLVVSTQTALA

Take `c1cn2cc(-c3ccc4ncn(C5CCCCC5)c4c3)nc(-c3ccc4c(c3)ncn4C3CCCCC3)c2n1` [Compound 31, 8-(1-cyclohexyl-1H-benzo[d]imidazol-5-yl)-6-(1-cyclohexyl-1H-benzo[d]imidazol-6-yl)imidazo[1,2-a]pyrazine]: in the assay with EtBr-CT-DNA complex (EtBr displacement, Eq. 4), the “apparent binding constant Kapp” value came to 750000 M⁻¹. Also, the “quenching constant (Stern-Volmer)” value in the assay on EtBr-CT-DNA complex (EtBr-CT-DNA 3 µM:30 µM, compound 0-80 µM) is 11600 M⁻¹. Further, in assay [1], the CC50 was above 1 µM. For the same compound, the “Ksv (Stern-Volmer constant)” value in the assay with CT-DNA (CT-DNA, pH 7.4, 298 K) amounted to 9300 M⁻¹. In the assay on CT-DNA (CT-DNA, τo = 10^−8 s), the “Kq (apparent bimolecular quenching constant)” value is 9.3e+11 M⁻¹ s⁻¹. Besides, in the assay with CT-DNA (CT-DNA, Scatchard), the Kbin was 95800 M⁻¹, the “binding constant (Kbin)” value is 95800 M⁻¹ and the “n (number of binding sites)” value is on record as 1.21. The KSV with CT-DNA (CT-DNA, Stern-Volmer constant) is 9300 M⁻¹. Further, the Kq in the assay with CT-DNA (CT-DNA, apparent bimolecular quenching constant) was 9.3e+11 M⁻¹ s⁻¹. The “quenching of fluorescence intensity” value in the assay with CT-DNA (compound 5 µM, CT-DNA 0–50 µM) was found to be 75%. Also, in assay [2], the “critical distance (Ro)” value stood at 2.29 nm; the “distance between BSA and the compound (r)” value was determined as 2.08 nm; the “energy transfer efficiency (E)” value was determined as 64%; the “overlap integral value (J)” value is recorded as 5.35 × 10^−15 cm^3 L mol^−1.
